A melting point compilation (Tetko et al.)

Compound | melting point [°C]
O=S(=O)(Cl)c1csc(-c2ccc(Br)cc2)n1 | 116 to 118
Nc1ccn(Cc2ccccc2)n1 | 56 to 58
CCOC(=O)CSc1nnc(-c2cccs2)o1 | 53 to 55
CSc1cc(C(=O)O)oc1C | 144 to 146
Nc1ccc(F)c(S(=O)(=O)NC2CC2)c1 | 107 to 109
CCC(CC)(CN)NC(=O)OC(C)(C)C | 49 to 51
CSCCC(NC(=O)c1ccc(Cl)cc1Cl)C(=O)O (stereo not drawn) | 79 to 81
CC(=O)c1ccc(-c2ccc(C(=O)O)o2)cc1 | 219 to 221
CC(C)Cc1ccc(C=CC(=O)O)cc1 | 159 to 161
CC(C)CSc1ccc([N+](=O)[O-])cc1C(=O)O | 189 to 191
O=C(O)Cn1c(=O)n(C2=CCCCC2)c2ccccc21 | 145 to 147
NCc1cccc(S(=O)(=O)N2CCCCC2)c1 | 67 to 69
CC(C)(C)OC(=O)NCc1ccc2c(c1)CCCN2 | 63 to 65
CSc1c[nH]nc1N | 76 to 78
CC(C)(C)OC(=O)NC(CN)C1CC1 (stereo not drawn) | 57 to 59
O=C(O)CCc1nc(-c2ccsc2)no1 | 153 to 155
Nc1ccc2c(c1)C(=O)NCC2 | 119 to 121
OCC1CNc2ccccc2C1 (stereo not drawn) | 79 to 81
NN=C1C(=O)Nc2c(Cl)cc(Cl)cc21 | 261 to 263
CCOC(=O)/C(C#N)=C\Nc1cc(F)ccc1F | 164 to 166

Compound | melting point [°C]
Cc1c(F)cc(C#N)cc1[N+](=O)[O-] | 75 to 77
Nc1ccc(Oc2ccc(C(F)(F)F)cc2)nc1 | 116 to 118
Cc1cccc(C(N)=O)n1 | 117 to 119
NC(CC(=O)O)c1ccc(C(F)(F)F)cc1 (stereo not drawn) | 219 to 221
Cc1cc(CC(=O)NN)[nH]n1 | 151 to 153
COCCCC(N)=NO | 84 to 86
CN(CC(=O)NC1CC1)C(=O)CCl | 113 to 115
O=C(O)CCc1cc2ccccc2o1 | 110 to 112
CSc1nc2ncccc2o1 | 62 to 64
Cn1c(-c2ccccc2)c(C(=O)CC#N)c2ccccc21 | 155 to 157
COc1ccc(C)cc1/C=C/C(=O)O | 141 to 143
O=C1CC(C(=O)O)CN1 (stereo not drawn) | 129 to 131
Cc1ccc(Br)cc1S(N)(=O)=O | 139 to 141
O=C(O)Cc1csc(Cc2ccccc2)n1 | 128 to 130
CCOC(=O)C(C(C)=O)C1CCS(=O)(=O)C1 (stereo not drawn) | 71 to 80
ClCCc1ncc(-c2ccccc2)o1 | 68 to 70
CC(C)c1cc(C(C)C)c([N+](=O)[O-])cc1[N+](=O)[O-] | 77 to 79
O=C(c1cccnc1)c1c[nH]c2ccccc12 | 212 to 214
COc1ccc(CC(=O)O)c(Cl)c1 | 118 to 120
Cc1ccc([N+](=O)[O-])c2cccnc12 | 87 to 89

Compound | melting point [°C]
CCCS(=O)(=O)Nc1ccccc1C(C)NC (stereo not drawn) | 58 to 60
O=C(O)c1ccc(S(=O)(=O)C(F)(F)F)cc1 | 244 to 246
Nc1ccc(Sc2ccc(C(F)(F)F)cc2)cc1 | 93 to 95
CCCc1nnn[nH]1 | 63 to 65
Nc1nnc(SCc2ccccc2)s1 | 159 to 161
NCC(O)c1ccc(F)cc1 (stereo not drawn) | 65 to 67
OCC(c1ccc(Br)cc1)N1CCNCC1 (stereo not drawn) | 109 to 111
Cc1cc(N)n(-c2ccc(F)cc2)n1 | 109 to 111
O=C1CC(c2ccccc2F)C(=O)N1 (stereo not drawn) | 97 to 99
COc1cccc(-c2nnc(N)o2)c1OC | 185 to 187
Nc1cnn(-c2ccc(C(F)(F)F)cc2)c1 | 159 to 161
Nc1cncc(Br)c1 | 65 to 69
NC(=O)Cc1csc(-c2ccco2)n1 | 125 to 127
Cc1oc(C(=O)O)cc1Cn1cc(Br)cn1 | 154 to 156
O=C(c1cc(Cl)nc2ccccc12)N1CCOCC1 | 175 to 177
NS(=O)(=O)C1CCCC1 | 76 to 78
Cc1cnn(CCC(=O)O)c1 | 94 to 96
CC(C)(C)OC(=O)N1CC(=CC(=O)O)C1 | 140 to 142
